≈ marks a conversion by molar mass, not a printed value. Like-named read-outs stand apart in the source and are kept apart here. Blank lines part the entries; values can stand above or below the compound they belong to. Peptide text beside a SMILES is read from it. * marks the point of attachment. βNA = c1ccc2cc(N*)ccc2c1
Assays:
Assay type in all cases: cell-based
Acinetobacter baumannii [1] = assay: MIC assay of individual compounds (microdilution, CLSI/NCCLS)
Procedure: (§1) Mueller-Hinton broth (MH broth) medium, Trypticase Soy Broth (TSB Broth) medium, purchased from BD Difco, Cockeysville, MD, USA; • 96-well plate: Corning Costar, Cambridge, MA, USA; • Test method: the antibacterial activities were tested by the microdilution method according to the CLSI/NCCLS standard.
(§2) (1) Preparation of the test samples: 4 mg of each sample was taken, and was prepared into a test solution at 1,024 μg/mL with MH broth, and the test solution was diluted two-fold in a 96-well plate to prepare solutions of a series of gradient concentrations, the volume in each well being 90 μL.
(§3) (2) Preparation of a bacteria solution: The test strains were amplified by Trypticase Soy Broth (TSB Broth) according to the CLSI/NCCLS standard.
(§4) (3) Addition of the samples: a bacteria solution with a concentration of 6×10^5 cfu/mL was prepared, and 10 μL of the bacteria solution was pipetted into each well of the 96-well plate. Three parallel experiments were set up for each concentration and the results were averaged. To the negative control group, 10 μL of the bacterial solution and 90 μL MH broth were added.
(§5) (4) Incubation: the 96-well plate was placed in a 37° C. constant-temperature incubator for 18 hours, and the growth of the strains was observed. The drug concentration in the well with no microbial growth was recorded as the MIC.

Pseudomonas aeruginosa [2] = assay: as above
Procedure: as §1, §2, §3, §4, §5

Acinetobacter baumannii [3] = assay: Combined in vitro use, checkerboard dilution method
Procedure: (§6) Mueller-Hinton broth (MH broth) medium, Trypticase Soy Broth (TSB Broth) medium, purchased from BD Difco, Cockeysville, MD, USA; • 96-well plate: Corning Costar, Cambridge, MA, USA; • Test method: the checkerboard dilution method was used for determination.
(§7) (1) Preparation of the test samples: 4 mg of each sample was taken and was prepared into a test solution at 2,048 μg/mL with MH broth, and the test solution was diluted two-fold in a 96-well plate to prepare solutions of a series of gradient concentrations.
as §3
(§8) (3) Addition of the samples: 10 μL of the bacteria solution with a concentration of 6×10^5 CFU/mL was pipetted into each well of the 96-well plate. Each well contained the antibacterial drugs (the compound of formula (I-1) and the compound of formula (I-2)) diluted two-fold with broth and the aforementioned lactamase inhibitor or efflux pump inhibitor. […] The samples were mixed thoroughly. Three parallel experiments were set up for each concentration and the results were averaged. To the negative control group, 10 μL of the bacterial solution and 90 μL MH broth were added.
(§9) (4) Incubation: the 96-well plate was placed in a 37° C. constant-temperature incubator for 18 hours, and the growth of the strains was observed.
(§10) (5) Calculation: The in vitro effect of each drug-inhibitor combination was analyzed by calculating the FICI value: FICI=(MIC of drug A in the combination/MIC of drug A alone)+ (MIC of drug B in the combination/MIC of drug B alone).
(§11) In order to ensure the reliability of the data, three repeated tests were conducted on different dates and the results were averaged.

[4] = system: Acinetobacter baumannii or Pseudomonas aeruginosa; assay: MIC assay of individual compounds, summary over non-fermenter strains; conditions: various Acinetobacter baumannii or Pseudomonas aeruginosa strains
Procedure: as §1, §2, §3, §4, §5

Escherichia coli [5] = assay: MIC assay of individual compounds (microdilution, CLSI/NCCLS)
Procedure: as §1, §2, §3, §4, §5

Klebsiella pneumoniae [6] = assay: as above
Procedure: as §1, §2, §3, §4, §5

Enterobacter cloacae = assay: as above
Procedure: as §1, §2, §3, §4, §5

Klebsiella pneumoniae [7] = assay: Combined in vitro use, checkerboard dilution method
Procedure: as §6, §7, §3, §8, §9, §10, §11

[8] = system: drug-resistant Enterobacteriaceae strains; assay: Checkerboard combination, summary over Enterobacteriaceae strains; conditions: combined with avibactam; all of the 4 drug-resistant Enterobacteriaceae strains tested
Procedure: as §6, §7, §3
as §8, with “To the negative control group, 10 μL of the bacterial solution and 90 μL MH broth were added.” left out
(5) Calculation: The in vitro effect of each drug-inhibitor combination was analyzed by calculating the FICI value: FICI=(MIC of drug A in the combination/MIC of drug A alone)+ (MIC of drug B in the combination/MIC of drug B alone). […]

Pseudomonas aeruginosa [9] = assay: Combined in vitro use, checkerboard dilution method
Procedure: as §6, §7, §3, §8, §9, §10, §11

[10] = system: drug-resistant Enterobacteriaceae; assay: MIC assay of individual compounds, summary over Enterobacteriaceae strains; conditions: against the aforementioned Enterobacteriaceae
Procedure: as §1, §2, §3, §4, §5

Escherichia coli [11] = assay: Combined in vitro use, checkerboard dilution method; conditions: compound of formula (I-1) combined with vaborbactam; Escherichia coli CCPM(A)-P-071301
Procedure: as §6, §7, §3, §8, §9, §10, §11

[12] = ATCC17978, individual compound, Acinetobacter baumannii ATCC 17978, read-out: MIC
[13] = ATCC19606, individual compound, Acinetobacter baumannii ATCC 19606, read-out: MIC
[14] = individual compound, Pseudomonas aeruginosa PAO1(CCPM(A)-P-09000032), read-out: MIC
[15] = ATCC2469, individual compound, Escherichia coli ATCC 2469, read-out: MIC
[16] = individual compound, Escherichia coli CCPM(A)-P-071301, read-out: MIC
[17] = Klebsiella pneumoniae, ATCC2146, individual compound, Klebsiella pneumoniae ATCC 2146, read-out: MIC
[18] = Klebsiella pneumoniae, ATCC700603, individual compound, Klebsiella pneumoniae ATCC 700603, read-out: MIC
[19] = Klebsiella pneumoniae, individual compound, Klebsiella pneumoniae CCPM(A)-0814R18, read-out: MIC
[20] = Klebsiella pneumoniae, individual compound, Klebsiella pneumoniae CCPM(A)-0814R33, read-out: MIC
[21] = Klebsiella pneumoniae, individual compound, Klebsiella pneumoniae CCPM(A)-081301, read-out: MIC
[22] = Klebsiella pneumoniae, individual compound, Klebsiella pneumoniae CCPM(A)-081715, read-out: MIC
[23] = Klebsiella pneumoniae, individual compound, Klebsiella pneumoniae CCPM(A)-081716, read-out: MIC
[24] = ATCC2468, individual compound, Enterobacter cloacae ATCC 2468, read-out: MIC

SMILES: CC1(C)[C@H](NC(=O)/C(=N\OC2(C(=O)O)CCC2)c2csc(N)n2)C(=O)N1OS(=O)(=O)O [Compound of formula (I-2)]
- MIC (Escherichia coli [5]; [15]): 1 µg/mL
- MIC (Escherichia coli [5]; [16]): 1 µg/mL
- MIC (Klebsiella pneumoniae [6]; [17]): 2 µg/mL
- MIC (Klebsiella pneumoniae [6]; [18]): 2 µg/mL
- MIC (Klebsiella pneumoniae [6]; [19]): 2 µg/mL
- MIC (Klebsiella pneumoniae [6]; [20]): 2 µg/mL
- MIC (Klebsiella pneumoniae [6]; Klebsiella pneumoniae, individual compound, Klebsiella pneumoniae CCPM(A)-0817R61, read-out: MIC): 32 µg/mL
- MIC (Klebsiella pneumoniae [6]; [21]): 2 µg/mL
- MIC (Klebsiella pneumoniae [6]; Klebsiella pneumoniae, individual compound, Klebsiella pneumoniae CCPM(A)-081705, read-out: MIC): 2 µg/mL
- MIC (Klebsiella pneumoniae [6]; [22]): 1 µg/mL
- MIC (Klebsiella pneumoniae [6]; [23]): 32 µg/mL
- MIC (Klebsiella pneumoniae [6]; Klebsiella pneumoniae, individual compound, Klebsiella pneumoniae CCPM(A)-081729, read-out: MIC): 1 µg/mL
- MIC (Enterobacter cloacae; [24]): 2 µg/mL
- MIC in combination (Klebsiella pneumoniae [7]; compound of formula (I-2) combined with avibactam, Klebsiella pneumoniae ATCC 2146): 0.5 µg/mL
- MIC in combination (Klebsiella pneumoniae [7]; compound of formula (I-2) combined with avibactam, Klebsiella pneumoniae ATCC 700603): 0.5 µg/mL
- MIC in combination (Klebsiella pneumoniae [7]; compound of formula (I-2) combined with avibactam, Klebsiella pneumoniae CCPM(A)-081715): 0.5 µg/mL
- MIC in combination (Klebsiella pneumoniae [7]; compound of formula (I-2) combined with avibactam, Klebsiella pneumoniae CCPM(A)-081729): 0.5 µg/mL
- change of MIC values on combination [8]: significantly reduced

SMILES: N=C(N)NCCC[C@H](NC(=O)[C@@H](N)Cc1ccccc1)C(=O)Nc1ccc2ccccc2c1 [PAβN, PaβN] (H-Phe-Arg-βNA)
- MIC (Acinetobacter baumannii [1]; [12]): > 256 µg/mL
- MIC (Acinetobacter baumannii [1]; [13]): > 256 µg/mL
- MIC (Acinetobacter baumannii [1]; Acinetobacter baumannii): > 256 µg/mL
- MIC (Pseudomonas aeruginosa [2]; Pseudomonas aeruginosa): > 256 µg/mL
- MIC (Pseudomonas aeruginosa [2]; Pseudomonas aeruginosa, ATCC27853): > 256 µg/mL
- MIC (Pseudomonas aeruginosa [2]; Pseudomonas aeruginosa, PAO1): > 256 µg/mL
- MIC in combination (Acinetobacter baumannii [3]; compound of formula (I-1) combined with PAβN, Acinetobacter baumannii CCPM(A)-P-101633(CRAB)): >0.5 µg/mL
- MIC in combination (Pseudomonas aeruginosa [9]; compound of formula (I-1) combined with PAβN, Pseudomonas aeruginosa ATCC27853): 64 µg/mL
- MIC in combination (Pseudomonas aeruginosa [9]; compound of formula (I-1) combined with PAβN, Pseudomonas aeruginosa CCPM(A)-P-091626(CRPA)): 128 µg/mL
- MIC in combination (Pseudomonas aeruginosa [9]; compound of formula (I-1) combined with PAβN, Pseudomonas aeruginosa PAO1(CCPM(A)-P-09000032)): 64 µg/mL
- activity of the inhibitor itself [4]: relatively weak activities

SMILES: O=C(O)C[C@@H]1CC[C@H](NC(=O)Cc2cccs2)B(O)O1 [Vaborbactam, vaborbactam]
- MIC (Escherichia coli [5]; Escherichia coli): > 128 µg/mL
- MIC (Escherichia coli [5]; Escherichia coli, ATCC2469): > 128 µg/mL
- MIC (Klebsiella pneumoniae [6]; Klebsiella pneumoniae): > 128 µg/mL
- MIC (Klebsiella pneumoniae [6]; Klebsiella pneumoniae, ATCC2146): > 128 µg/mL
- MIC (Klebsiella pneumoniae [6]; Klebsiella pneumoniae, ATCC700603): > 128 µg/mL
- MIC (Klebsiella pneumoniae [6]; individual compound, Klebsiella pneumoniae CCPM(A)-0814R33): >128 µg/mL
- MIC (Klebsiella pneumoniae [6]; individual compound, Klebsiella pneumoniae CCPM(A)-081301): >128 µg/mL
- MIC (Klebsiella pneumoniae [6]; individual compound, Klebsiella pneumoniae CCPM(A)-081715): >128 µg/mL
- MIC (Klebsiella pneumoniae [6]; individual compound, Klebsiella pneumoniae CCPM(A)-081716): >128 µg/mL
- MIC (Enterobacter cloacae; Enterobacter cloacae): > 128 µg/mL
- MIC (Enterobacter cloacae; Enterobacter cloacae, ATCC2468): > 128 µg/mL
- activity of the inhibitor itself [10]: relatively weak activities
- MIC in combination (Escherichia coli [11]): 0.5 µg/mL
- MIC in combination (Klebsiella pneumoniae [7]; compound of formula (I-1) combined with vaborbactam, Klebsiella pneumoniae ATCC 700603): 8 µg/mL
- MIC in combination (Klebsiella pneumoniae [7]; compound of formula (I-1) combined with vaborbactam, Klebsiella pneumoniae CCPM(A)-0814R33): 2 µg/mL

Second part, led by results:

- MIC (Acinetobacter baumannii [1]; [12]): > 1020 µg/mL
- MIC (Acinetobacter baumannii [1]; [13]): > 1020 µg/mL
- MIC (Acinetobacter baumannii [1]; individual compound, Acinetobacter baumannii CCPM(A)-P-101633(CRAB), read-out: MIC): > 1020 µg/mL
- MIC (Pseudomonas aeruginosa [2]; individual compound, Pseudomonas aeruginosa ATCC27853, read-out: MIC): > 1020 µg/mL
- MIC (Pseudomonas aeruginosa [2]; individual compound, Pseudomonas aeruginosa CCPM(A)-P-091626(CRPA), read-out: MIC): > 1020 µg/mL
- MIC (Pseudomonas aeruginosa [2]; [14]): > 1020 µg/mL
- MIC in combination (Acinetobacter baumannii [3]; compound of formula (I-1) combined with berberine, Acinetobacter baumannii ATCC 19606): 32 µg/mL
- MIC in combination (Acinetobacter baumannii [3]; compound of formula (I-1) combined with berberine, Acinetobacter baumannii CCPM(A)-P-101633(CRAB)): >0.5 µg/mL
SMILES: COc1ccc2cc3[n+](cc2c1OC)CCc1cc2c(cc1-3)OCO2 [Berberine, berberine]
- activity of the inhibitor itself [4]: relatively weak activities

- MIC (Acinetobacter baumannii [1]; [13]): > 256 µg/mL
- MIC (Pseudomonas aeruginosa [2]; [14]): > 256 µg/mL
- MIC in combination (Acinetobacter baumannii [3]; compound of formula (I-1) combined with conessine, Acinetobacter baumannii ATCC 19606): 4 µg/mL
- MIC in combination (Pseudomonas aeruginosa [9]; compound of formula (I-1) combined with conessine, Pseudomonas aeruginosa PAO1(CCPM(A)-P-09000032)): >256 µg/mL
SMILES: C[C@H]1[C@H]2CC[C@H]3[C@@H]4CC=C5C[C@@H](N(C)C)CC[C@]5(C)[C@H]4CC[C@]23CN1C [Conessine, conessine]
- activity of the inhibitor itself [4]: relatively weak activities

- MIC (Escherichia coli [5]; [15]): 64 µg/mL (≈ 184 µM)
- MIC (Escherichia coli [5]; [16]): 64 µg/mL (≈ 184 µM)
- MIC (Klebsiella pneumoniae [6]; [17]): 64 µg/mL (≈ 184 µM)
- MIC (Klebsiella pneumoniae [6]; [18]): 64 µg/mL (≈ 184 µM)
- MIC (Klebsiella pneumoniae [6]; [19]): 64 µg/mL (≈ 184 µM)
- MIC (Klebsiella pneumoniae [6]; [20]): 64 µg/mL (≈ 184 µM)
- MIC (Klebsiella pneumoniae [6]; [21]): > 128 µg/mL
- MIC (Klebsiella pneumoniae [6]; [22]): 64 µg/mL (≈ 184 µM)
- MIC (Klebsiella pneumoniae [6]; [23]): 128 µg/mL (≈ 367 µM)
- MIC (Enterobacter cloacae; [24]): 128 µg/mL (≈ 367 µM)
- MIC (Enterobacter cloacae; individual compound, Enterobacter cloacae CCPM(A)-P-111719, read-out: MIC): 128 µg/mL (≈ 367 µM)
- MIC in combination (Klebsiella pneumoniae [7]; compound of formula (I-1) combined with relebactam, Klebsiella pneumoniae ATCC 2146): 0.5 µg/mL
- MIC in combination (Klebsiella pneumoniae [7]; compound of formula (I-1) combined with relebactam, Klebsiella pneumoniae ATCC 700603): 8 µg/mL
SMILES: O=C(NC1CCNCC1)[C@@H]1CC[C@@H]2CN1C(=O)N2OS(=O)(=O)O [Relebactam, relebactam]
- activity of the inhibitor itself [10]: relatively weak activities
